Test results published in ChEMBL document CHEMBL1201862, “PubChem BioAssay data set” (2004).
Calls of active or inactive are those of the source.

Tests used:
[1] = target: Beta-2 adrenergic receptor (Homo sapiens, UniProt P07550); experiment: beta2AR agonists driving receptor internalization, dose response, cell-based, FAP fluorogen, flow cytometry, cherry pick 1 (AID 588763); format: functional
[2] = NIH-3T3 fibroblast cytotoxicity, dose response, cytotoxicity control, cell-based, fluorescence, Alamar Blue, secondary assay (AID 2327); format: functional;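 also: NIH-3T3 mouse fibroblasts cultured with fluconazole at 8 µg/mL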
HEK293 [3] = experiment: NOD1 signaling inhibitors, primary screen, cell-based, luminescence, uHTS (AID 1578); format: functional; details: Homo sapiens
[4] = system: Streptococcus sp. 'group A'; experiment: growth inhibition of control SK(-) GAS strain, dose response, counter-screen for streptokinase expression inhibitor project, luminescence, kanamycin, BacTiterGlo, confirmation (AID 1900); format: functional, organism-based
HEK293 [5] = experiment: cells; format: functional, cell-based; details: Homo sapiens
Streptokinase A = target: T1, Streptokinase A (Streptococcus pyogenes serotype M1, UniProt P10520); experiment: S. pyogenes streptokinase expression inhibitors, potency, dose response, plasminogen activation absorbance, OD405 (AID 1914); format: functional, Streptococcus pyogenes M1 GAS;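 also: secreted streptokinase activity via plasminogen activation per viability signal from cell pellet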
T1 sequence (P10520 whole entry): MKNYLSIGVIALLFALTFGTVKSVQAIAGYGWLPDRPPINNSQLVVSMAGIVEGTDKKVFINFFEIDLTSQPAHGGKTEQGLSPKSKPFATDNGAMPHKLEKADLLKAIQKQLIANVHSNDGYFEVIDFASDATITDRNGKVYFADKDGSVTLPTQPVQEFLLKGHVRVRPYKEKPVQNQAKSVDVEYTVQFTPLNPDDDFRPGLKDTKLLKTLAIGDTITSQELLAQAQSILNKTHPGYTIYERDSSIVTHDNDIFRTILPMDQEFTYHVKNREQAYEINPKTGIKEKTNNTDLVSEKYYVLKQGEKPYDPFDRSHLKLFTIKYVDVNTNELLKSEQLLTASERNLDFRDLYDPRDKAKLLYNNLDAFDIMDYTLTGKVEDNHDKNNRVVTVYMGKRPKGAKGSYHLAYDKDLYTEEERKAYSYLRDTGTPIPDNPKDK

[6] = C. albicans growth with fluconazole, confirmation, fluorescence, retest (AID 2467); format: functional, cell-based
HEK293 [7] = experiment: cells; format: functional, cell-based; details: Homo sapiens; remark: listed apart in the source
HEK293 [8] = experiment: NOD2 signaling inhibitors in MDP-stimulated cells, cell-based, uHTS, luminescence (AID 2001); format: functional; details: Homo sapiens
[9] = target: Serine/threonine-protein phosphatase (Candida dubliniensis (strain CD36 / CBS 7987 / NCPF 3949 / NRRLY-17841) (Yeast), UniProt B9W6M3); experiment: calcineurin pathway inhibitors in yeast reporter, dose response, S. cerevisiae, CDRE-lacZ, luminescence, secondary (AID 2388); format: functional, cell-based;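 also: yeast reporter cells carrying a calcineurin-responsive lacZ construct stimulated with calcium chloride; luminescent beta-galactosidase reporter signal in whole cells rather than isolated phosphatase activity; potency for inhibition where a drop in reporter signal means calcineurin blockade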
Serine/threonine-protein phosphatase, sequence (B9W6M3 whole entry): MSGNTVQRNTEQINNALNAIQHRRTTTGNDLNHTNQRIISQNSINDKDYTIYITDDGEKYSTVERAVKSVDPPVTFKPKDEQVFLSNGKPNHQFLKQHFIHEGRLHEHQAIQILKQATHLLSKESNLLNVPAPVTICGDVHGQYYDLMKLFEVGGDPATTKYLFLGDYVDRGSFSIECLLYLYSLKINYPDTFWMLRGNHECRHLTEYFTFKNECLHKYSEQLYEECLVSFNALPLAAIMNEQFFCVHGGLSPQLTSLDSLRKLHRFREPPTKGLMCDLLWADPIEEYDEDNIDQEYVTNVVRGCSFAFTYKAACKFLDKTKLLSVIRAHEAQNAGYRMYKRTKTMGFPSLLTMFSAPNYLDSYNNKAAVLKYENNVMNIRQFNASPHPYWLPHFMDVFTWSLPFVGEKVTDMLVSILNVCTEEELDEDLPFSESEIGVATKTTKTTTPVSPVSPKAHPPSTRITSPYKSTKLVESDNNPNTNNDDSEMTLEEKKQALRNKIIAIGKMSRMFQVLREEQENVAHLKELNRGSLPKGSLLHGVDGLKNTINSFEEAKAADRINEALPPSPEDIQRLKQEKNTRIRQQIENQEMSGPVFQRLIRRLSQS

Streptococcus = experiment: Group A Streptococcus viability loss, dose response, counter-screen for streptokinase expression inhibitor project, luminescence, BacTiterGlo (AID 1915); format: functional, organism-based;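 also: potency for reduction of bacterial viability or growth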
Tumor necrosis factor = Tumor necrosis factor (Homo sapiens, UniProt P01375); experiment: TNFa-triggered NF-kB activation inhibitors, SAR follow-up, cell-based, revised (AID 2337); format: functional
Tumor necrosis factor, sequence (P01375 whole entry, the tested form may be a part): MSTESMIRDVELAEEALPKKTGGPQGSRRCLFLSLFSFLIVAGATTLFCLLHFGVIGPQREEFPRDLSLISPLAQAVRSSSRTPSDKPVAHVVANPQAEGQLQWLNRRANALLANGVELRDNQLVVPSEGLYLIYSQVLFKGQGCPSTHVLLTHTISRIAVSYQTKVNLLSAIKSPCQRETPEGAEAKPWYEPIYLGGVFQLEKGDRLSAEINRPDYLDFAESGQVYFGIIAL

[10] = target: Nucleotide-binding oligomerization domain-containing protein 1 (Homo sapiens, UniProt Q9Y239); experiment: NOD1 signaling inhibitors, SAR follow-up, revised (AID 2333); format: functional
[11] = target: Nucleotide-binding oligomerization domain-containing protein 2 (Homo sapiens, UniProt Q9HC29); experiment: PubChem AID 2334; format: functional
Nucleotide-binding oligomerization domain-containing protein 2, sequence (Q9HC29 whole entry, the tested form may be a part): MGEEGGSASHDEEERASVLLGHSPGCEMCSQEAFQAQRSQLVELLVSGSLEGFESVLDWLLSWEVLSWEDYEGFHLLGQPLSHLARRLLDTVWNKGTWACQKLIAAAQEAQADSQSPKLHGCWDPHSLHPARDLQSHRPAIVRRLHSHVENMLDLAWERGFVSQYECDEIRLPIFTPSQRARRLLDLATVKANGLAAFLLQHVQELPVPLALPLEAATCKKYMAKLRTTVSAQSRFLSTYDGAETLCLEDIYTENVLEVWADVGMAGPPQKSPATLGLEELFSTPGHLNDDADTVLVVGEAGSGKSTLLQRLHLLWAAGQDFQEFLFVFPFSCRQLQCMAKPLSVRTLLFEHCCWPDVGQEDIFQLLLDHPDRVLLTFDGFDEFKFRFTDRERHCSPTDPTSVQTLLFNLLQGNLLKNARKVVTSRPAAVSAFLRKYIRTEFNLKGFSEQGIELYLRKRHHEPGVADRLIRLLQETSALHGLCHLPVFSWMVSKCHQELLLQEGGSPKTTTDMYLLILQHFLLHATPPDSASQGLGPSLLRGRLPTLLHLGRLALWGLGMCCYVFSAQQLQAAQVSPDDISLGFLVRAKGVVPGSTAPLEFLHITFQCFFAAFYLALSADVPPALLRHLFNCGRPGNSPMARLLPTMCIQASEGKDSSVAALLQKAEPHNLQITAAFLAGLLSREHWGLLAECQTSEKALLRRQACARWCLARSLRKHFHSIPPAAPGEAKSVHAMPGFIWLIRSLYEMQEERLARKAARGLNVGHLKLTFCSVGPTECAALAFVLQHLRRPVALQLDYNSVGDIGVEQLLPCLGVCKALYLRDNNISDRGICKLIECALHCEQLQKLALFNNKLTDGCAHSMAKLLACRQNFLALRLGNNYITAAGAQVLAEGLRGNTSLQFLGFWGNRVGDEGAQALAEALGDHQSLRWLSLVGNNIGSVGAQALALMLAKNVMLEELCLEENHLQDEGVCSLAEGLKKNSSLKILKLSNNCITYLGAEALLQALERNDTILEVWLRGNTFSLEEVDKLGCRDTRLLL

[12] = target: ATP-dependent molecular chaperone HSP82 (Candida albicans (strain WO-1) (Yeast), UniProt C4YTQ8); experiment: loss of DOC-induced GRE-beta-galactosidase reporter signal, dose response, Hsp90 inhibitor project, S. cerevisiae, luminescence (AID 2400); format: functional, cell-based;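 also: beta-galactosidase luminescence from glucocorticoid response element reporter as proxy for Hsp90 function; inhibitor potency where signal loss means Hsp90 inhibition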
ATP-dependent molecular chaperone HSP82, sequence (C4YTQ8 whole entry, the tested form may be a part): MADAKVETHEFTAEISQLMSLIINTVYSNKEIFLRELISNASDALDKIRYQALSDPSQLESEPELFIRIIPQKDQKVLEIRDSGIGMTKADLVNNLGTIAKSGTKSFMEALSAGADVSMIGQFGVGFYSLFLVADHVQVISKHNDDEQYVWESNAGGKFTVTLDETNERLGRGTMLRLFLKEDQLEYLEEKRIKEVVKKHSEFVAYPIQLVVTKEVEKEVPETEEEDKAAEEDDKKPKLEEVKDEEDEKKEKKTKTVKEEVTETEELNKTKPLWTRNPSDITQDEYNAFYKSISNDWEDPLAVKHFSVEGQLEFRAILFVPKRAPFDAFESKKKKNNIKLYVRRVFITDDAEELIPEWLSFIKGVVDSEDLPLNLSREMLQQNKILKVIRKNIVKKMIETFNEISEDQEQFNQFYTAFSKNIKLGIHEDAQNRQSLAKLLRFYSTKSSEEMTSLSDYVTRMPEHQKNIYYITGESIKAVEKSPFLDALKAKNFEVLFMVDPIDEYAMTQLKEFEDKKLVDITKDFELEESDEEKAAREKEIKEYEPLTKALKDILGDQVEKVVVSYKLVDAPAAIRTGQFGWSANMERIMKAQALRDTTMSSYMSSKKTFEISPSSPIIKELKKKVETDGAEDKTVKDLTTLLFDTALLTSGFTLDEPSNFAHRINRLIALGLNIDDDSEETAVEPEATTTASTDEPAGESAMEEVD

[13] = target: T2, Carboxy-terminal domain RNA polymerase II polypeptide A small phosphatase 1 (Homo sapiens, UniProt Q9GZU7); experiment: inhibitors of CTDSP1, concentration-response testing, biochemical assay, absorbance-based, actives from ultra-high-throughput screening (AID 540297); format: functional
T2 sequence (Q9GZU7 whole entry): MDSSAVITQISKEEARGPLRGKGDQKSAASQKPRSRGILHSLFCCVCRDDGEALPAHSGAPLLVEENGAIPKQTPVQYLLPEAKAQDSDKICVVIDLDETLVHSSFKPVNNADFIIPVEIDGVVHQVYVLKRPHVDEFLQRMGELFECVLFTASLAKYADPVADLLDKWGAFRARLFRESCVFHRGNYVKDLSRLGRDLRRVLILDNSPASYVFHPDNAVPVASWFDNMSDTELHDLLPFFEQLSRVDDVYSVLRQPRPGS

[14] = target: T3, Corticotropin-releasing factor receptor 2/Corticotropin-releasing factor-binding protein (Homo sapiens, UniProt P24387+Q13324); experiment: Dose Response confirmation of uHTS hits for small molecule antagonists of the CRF-binding protein and CRF-R2 receptor complex.; format: functional; details: read-out: IC50_Mean
T3 sequence (Q13324 whole entry): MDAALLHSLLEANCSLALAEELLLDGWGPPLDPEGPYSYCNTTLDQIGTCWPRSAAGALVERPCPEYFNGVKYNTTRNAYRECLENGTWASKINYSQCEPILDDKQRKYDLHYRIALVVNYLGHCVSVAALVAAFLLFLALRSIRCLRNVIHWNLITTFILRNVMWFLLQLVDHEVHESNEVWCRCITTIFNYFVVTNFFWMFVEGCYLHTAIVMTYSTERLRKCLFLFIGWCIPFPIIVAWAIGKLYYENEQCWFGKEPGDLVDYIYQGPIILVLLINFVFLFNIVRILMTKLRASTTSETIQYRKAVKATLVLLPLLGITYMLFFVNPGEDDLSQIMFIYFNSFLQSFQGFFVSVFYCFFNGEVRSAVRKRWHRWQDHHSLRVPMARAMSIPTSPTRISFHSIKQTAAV
T3 sequence (P24387 whole entry): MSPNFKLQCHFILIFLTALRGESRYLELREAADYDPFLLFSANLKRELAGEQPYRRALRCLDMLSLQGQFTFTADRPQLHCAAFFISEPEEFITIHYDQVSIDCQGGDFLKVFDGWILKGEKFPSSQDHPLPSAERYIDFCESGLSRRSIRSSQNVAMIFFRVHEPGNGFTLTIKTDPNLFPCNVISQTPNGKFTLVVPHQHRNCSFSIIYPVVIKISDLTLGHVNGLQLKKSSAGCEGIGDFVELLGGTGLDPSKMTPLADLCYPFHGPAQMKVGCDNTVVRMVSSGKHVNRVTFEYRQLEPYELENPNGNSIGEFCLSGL

[15] = target: T3, Corticotropin-releasing factor receptor 2/Corticotropin-releasing factor-binding protein; experiment: activators of CRF receptor 2 with binding protein – uHTS hits, confirmation (AID 602473); format: functional; details: read-out: EC50_Mean
[16] = CRF-BP/CRF-R2 complex antagonists, dose response, cell-based, uHTS hits, 384-well (AID 651639); format: functional, Homo sapiens; details: read-out: IC50_Mean
HEK293 [17] = experiment: cells; details: Homo sapiens
NIH3T3 = experiment: cytotoxicity in NIH-3T3 fibroblasts, dose response, cytotoxicity control for antifungal drug resistance project, cell-based, Alamar Blue, fluconazole, dry powder (AID 488809); format: functional; details: Mus musculus
Phospholipase D1 = Phospholipase D1 (Homo sapiens, UniProt Q13393); experiment: PLD1 inhibitor potency in cells, dose response (AID 602151); format: functional;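 also: cellular PLD1 assay in Calu-1 cells stimulated with PMA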
Phospholipase D1, sequence (Q13393 whole entry): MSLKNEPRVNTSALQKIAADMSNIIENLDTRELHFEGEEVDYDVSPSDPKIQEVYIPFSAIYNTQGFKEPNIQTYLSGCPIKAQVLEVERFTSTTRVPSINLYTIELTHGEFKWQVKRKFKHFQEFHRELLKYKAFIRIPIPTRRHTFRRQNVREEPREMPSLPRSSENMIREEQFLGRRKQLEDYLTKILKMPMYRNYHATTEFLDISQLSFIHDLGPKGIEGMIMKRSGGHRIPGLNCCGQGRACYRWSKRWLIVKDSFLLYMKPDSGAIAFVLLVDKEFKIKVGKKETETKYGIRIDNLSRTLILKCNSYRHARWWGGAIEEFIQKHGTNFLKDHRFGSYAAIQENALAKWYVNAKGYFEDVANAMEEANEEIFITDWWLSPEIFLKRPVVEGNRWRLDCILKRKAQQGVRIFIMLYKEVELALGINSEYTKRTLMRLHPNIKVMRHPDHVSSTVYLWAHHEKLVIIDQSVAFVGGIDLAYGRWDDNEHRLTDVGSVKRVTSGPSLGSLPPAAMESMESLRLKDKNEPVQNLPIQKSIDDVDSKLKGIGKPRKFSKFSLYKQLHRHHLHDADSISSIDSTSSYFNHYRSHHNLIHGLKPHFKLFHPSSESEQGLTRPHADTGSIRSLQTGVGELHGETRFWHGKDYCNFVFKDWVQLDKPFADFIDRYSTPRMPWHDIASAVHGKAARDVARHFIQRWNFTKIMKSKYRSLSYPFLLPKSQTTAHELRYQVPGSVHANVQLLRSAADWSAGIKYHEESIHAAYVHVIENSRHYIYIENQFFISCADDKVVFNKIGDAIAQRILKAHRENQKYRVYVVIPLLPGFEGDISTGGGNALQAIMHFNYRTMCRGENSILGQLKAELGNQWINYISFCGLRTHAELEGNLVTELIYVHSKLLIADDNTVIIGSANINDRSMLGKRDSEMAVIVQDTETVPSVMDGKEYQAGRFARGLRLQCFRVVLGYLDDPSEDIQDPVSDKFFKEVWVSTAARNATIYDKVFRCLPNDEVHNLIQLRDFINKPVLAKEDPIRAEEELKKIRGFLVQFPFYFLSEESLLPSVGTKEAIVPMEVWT

Phospholipase D2 = Phospholipase D2 (Homo sapiens, UniProt O14939); experiment: PLD2 inhibitor potency in cells, dose response (AID 602147); format: functional;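 also: cellular assay in HEK293 cells overexpressing GFP-tagged PLD2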
Phospholipase D2, sequence (O14939 whole entry): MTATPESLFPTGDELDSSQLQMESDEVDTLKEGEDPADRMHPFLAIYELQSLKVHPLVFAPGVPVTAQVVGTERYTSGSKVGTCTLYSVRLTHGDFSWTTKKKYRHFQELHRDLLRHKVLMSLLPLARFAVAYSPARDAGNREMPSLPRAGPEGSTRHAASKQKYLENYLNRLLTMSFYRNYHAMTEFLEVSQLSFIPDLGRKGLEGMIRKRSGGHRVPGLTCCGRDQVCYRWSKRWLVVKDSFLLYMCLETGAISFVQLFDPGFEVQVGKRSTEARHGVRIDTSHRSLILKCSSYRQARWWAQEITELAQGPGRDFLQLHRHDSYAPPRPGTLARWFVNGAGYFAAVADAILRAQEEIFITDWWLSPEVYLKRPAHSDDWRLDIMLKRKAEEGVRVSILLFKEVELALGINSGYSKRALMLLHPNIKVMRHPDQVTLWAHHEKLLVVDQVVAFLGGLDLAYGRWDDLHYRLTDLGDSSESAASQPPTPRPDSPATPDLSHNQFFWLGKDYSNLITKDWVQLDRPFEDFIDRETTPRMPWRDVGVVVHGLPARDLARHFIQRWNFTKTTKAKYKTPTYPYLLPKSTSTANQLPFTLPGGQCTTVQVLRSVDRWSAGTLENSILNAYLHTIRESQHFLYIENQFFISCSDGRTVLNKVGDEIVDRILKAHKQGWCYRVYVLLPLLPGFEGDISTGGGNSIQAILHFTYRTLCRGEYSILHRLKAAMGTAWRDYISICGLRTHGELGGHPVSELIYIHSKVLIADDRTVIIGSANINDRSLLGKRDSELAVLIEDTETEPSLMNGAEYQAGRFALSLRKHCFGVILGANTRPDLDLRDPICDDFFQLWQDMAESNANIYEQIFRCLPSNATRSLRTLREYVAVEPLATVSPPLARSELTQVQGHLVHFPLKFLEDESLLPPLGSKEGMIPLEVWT

Beta-2 adrenergic receptor, sequence (P07550 whole entry): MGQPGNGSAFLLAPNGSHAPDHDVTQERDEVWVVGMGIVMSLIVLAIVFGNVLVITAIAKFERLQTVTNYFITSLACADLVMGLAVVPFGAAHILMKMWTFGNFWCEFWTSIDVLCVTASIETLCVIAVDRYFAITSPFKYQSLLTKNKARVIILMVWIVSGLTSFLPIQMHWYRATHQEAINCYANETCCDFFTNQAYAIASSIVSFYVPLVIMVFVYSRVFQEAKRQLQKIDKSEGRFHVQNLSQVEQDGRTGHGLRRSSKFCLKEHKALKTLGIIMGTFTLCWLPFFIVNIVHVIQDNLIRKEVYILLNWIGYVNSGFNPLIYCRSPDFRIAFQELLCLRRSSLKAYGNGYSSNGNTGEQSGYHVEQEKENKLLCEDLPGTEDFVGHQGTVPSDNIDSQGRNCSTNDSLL

With `COc1ccc(CN2CCC(Oc3ccc(C(=O)N4CCCCC4)cc3)CC2)cc1C` the EC50 [1] was 25.3 µM (inactive).

In the case of `O=[N+]([O-])c1ccc(O)c(Nc2ncnc3ccc(Br)cc23)c1`, the EC50 [2] is reported as > 160 µM (inactive), the EC50 (HEK293 [3]) is reported as 2.64 µM (active) and the EC50 [4] is reported as 6.15 µM (active). The IC50 (HEK293 [5]) was > 20 µM (inactive), the EC50 (Streptokinase A) was > 150 µM (not active) and the EC50 [6] was 0.429 µM (active). The IC50 (HEK293 [7]) was > 20 µM (inactive), the IC50 (HEK293 [8]) was 18.8 µM (inactive) and the EC50 [9] was > 180 µM (inactive). The EC50 (Streptococcus) was 46.2 µM (active), the IC50 (Tumor necrosis factor) was 6.28 µM (active) and the IC50 [10] was 2.15 µM (active). The IC50 [11] was 3.53 µM (active), the EC50 [12] was > 160 µM (inactive) and the IC50 [13] was 5.46 µM (active). For the same compound, the IC50 [14] was 5.76 µM (active), the EC50 [15] was 5.78 µM (active) and the IC50 [16] was > 20 µM (inactive). For the same compound, the IC50 (HEK293 [17]) was > 20 µM (inactive).

In the case of `COc1ccc2c(c1)c1nc3n(c(=O)c1n2CC(=O)N1CCC(Cc2ccccc2)CC1)CCS3`, the AC50 (NIH3T3) is reported as 207 µM (active).

With `O=C(NCCN1CCC(n2c(=O)[nH]c3cc(I)ccc32)CC1)c1ccc(Cl)cc1` the IC50 (Phospholipase D1) was 0.005 µM (active) and the IC50 (Phospholipase D2) was 0.345 µM (active).
